Laboratory results as given in PubChem BioAssay (NCI).
Where “and” joins values, the source holds several entries; their conditions need not be identical. Identical values can stand only once.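 Test compounds were applied to cells in 96-well plates for 48 hours at 5 doses. At the GI50, growth is halved. The concentration for full growth arrest is given as TGI.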

Key:
Experiment in all cases: DTP human tumour cell line panel, 48 h
A549 NSCLC = system: A549 NSCLC
ACHN renal = system: ACHN renal
HCC-2998 colon = system: HCC-2998 colon
HOP-62 NSCLC = system: HOP-62 NSCLC
M14 melanoma = system: M14 melanoma
OVCAR-4 ovarian = system: OVCAR-4 ovarian
SF-539 CNS = system: SF-539 CNS
SK-MEL-2 melanoma = system: SK-MEL-2 melanoma
SK-MEL-5 melanoma = system: SK-MEL-5 melanoma
UACC-257 melanoma = system: UACC-257 melanoma

Row | SMILES | GI50 (A549 NSCLC) [µM] | TGI (A549 NSCLC) | GI50 (ACHN renal) [µM] | TGI (ACHN renal) | GI50 (HCC-2998 colon) [µM] | TGI (HCC-2998 colon) [µM] | GI50 (HOP-62 NSCLC) [µM] | TGI (HOP-62 NSCLC) | GI50 (M14 melanoma) [µM] | TGI (M14 melanoma) | GI50 (OVCAR-4 ovarian) [µM] | TGI (OVCAR-4 ovarian) | GI50 (SF-539 CNS) [µM] | TGI (SF-539 CNS) | GI50 (SK-MEL-2 melanoma) [µM] | TGI (SK-MEL-2 melanoma) | GI50 (SK-MEL-5 melanoma) [µM] | TGI (SK-MEL-5 melanoma) | GI50 (UACC-257 melanoma) [µM] | TGI (UACC-257 melanoma)
1 | COc1c(Cl)ccc2c(-c3nc4cc(Cl)c(F)cc4s3)cc(=O)oc12 | 17.9 | > 100 µM | 4 | 17.2 µM | 38.5 | > 100 | 6.26 | 20.7 µM | 26.7 | > 100 µM | 12.9 | 70.6 µM | 1.77 | 3.36 µM | 21.4 | 87.9 µM | 26.5 | > 88.4 µM | 26.5 | > 73.6 µM
2 | O=C(Nc1ccc(Br)cc1)C(=O)C(C(=O)c1ccccc1F)C1OC(=O)c2ccccc21 (stereo not given) | – | > 100 µM | – | > 100 µM | – | 32.1 | – | 50.8 µM | – | 43.9 µM | – | 76 µM | – | 66.9 µM | – | 68.6 µM | – | 87.1 µM | – | > 100 µM
3 | CCOC(=O)C(C)(C)Oc1ccc2c(-c3ccc(Cl)cc3)c(-c3ccc(Cl)cc3)c(=O)oc2c1 | – | > 100 µM | – | > 100 µM | – | > 100 | – | > 100 µM | – | > 100 µM | – | > 100 µM | – | > 100 µM | – | > 100 µM | – | > 100 µM | – | > 100 µM
4 | CC(=O)[O-].[Zn].c1ccc(/C(=N\Nc2ccccn2)c2ccccn2)cc1 | 0.447 | 5.48 µM | 0.0241 | 5.03 µM | – | 2.07 | 0.591 | 1.81 µM | 0.0468 | 1.43 µM | – | 18.1 µM | 1.43 | 9.53 µM | – | 10.6 µM | 0.447 | 1.59 µM | – | 2.08 µM
5 | COC(=O)[C@]12CC[C@@H](C)[C@H](C)[C@@H]1C1=CC[C@@H]3[C@@]4(C)C(C=O)=C[C@@](C)(COS(C)(=O)=O)C4[C@H](O)C[C@@]3(C)[C@]1(C)CC2 (stereo not given in full) | 2.64 | 11 µM | 1.18 | 2.56 µM | 1.69 | 3.12 | 2.23 | 4.45 µM | 1.68 | 4.5 µM | 1.84 | 6.06 µM | 1.83 | 3.71 µM | 2.06 | 5.03 µM | 1.7 | 3.26 µM | 1.85 | 3.65 µM
6 | Cc1ccc(C=NC23CC4CC(CC(C4)C2)C3)cc1 | – | > 100 µM | – | > 100 µM | – | > 100 | – | > 100 µM | – | > 100 µM | – | > 100 µM | – | > 100 µM | – | > 100 µM | – | > 100 µM | – | > 100 µM
7 | Cc1ncc(C(=O)Nc2ccc(CN3CCN(C)CC3)c(C(F)(F)F)c2)cc1C#Cc1c(N)ncc2ccccc12 | 0.488 | 1.03 µM | 0.336 | 0.732 µM | 0.446 | 0.899 | 0.524 | 1.4 µM | 0.0923 | 0.476 µM | 0.515 | 2.08 µM | 0.47 | 0.914 µM | 0.545 | 1.25 µM | 0.446 | 0.878 µM | 0.477 | 1.06 µM
8 | Cc1nc2c(N3CCCC3)nc(N3CCNCC3)nc2nc1NCc1ccccc1 | 5.45 | 12.6 µM and 14.2 µM | 2.69 | 7.54 µM and 16.5 µM | – | 2.95 | 5.76 | 11.8 µM and 8.26 µM | 2.64 | 9.12 µM and 3.53 µM | 5.57 | 11.7 µM and 21.7 µM | 6.21 | 13.4 µM and 7 µM | 4.48 | 9.42 µM and 9.97 µM | 4.94 | 9.98 µM and 3.06 µM | 7.15 | 12.9 µM and 3.64 µM
